For one series, the system named is HCT116 cells. The series is described as follows: HCT116 cell proliferation MTT assay. The settings on record: HCT-116; HCT116 human colon carcinoma cells, MTT assay after 5 days (120 h) incubation, compound 3 uM to 0.15 nM. It counts as cell-based. The procedure: HCT116 cells (human colon carcinoma cell line) were cultivated in RPMI 1640, 2.5% FCS, 2 mM Glutamine, 100 u/ml Penicillin, 100 ug/ml Streptomycin. For the assay the cells were seeded in 384 well plates, 1000 cells per well, in the same medium
The next day compounds (dissolved 10 mM in DMSO) were added in various concentrations ranging from 3 uM to 0.15 nM. After 5 days the MTT assay was done mainly according to the instructions of the manufacturer (Cell proliferation kit I, MTT, from Roche Molecular Biochemicals). In brief: MTT labeling reagent was added to a final concentration of 0.5 mg/ml, added and incubated for 4 hrs at 37° C., 5% CO2. During this incubation time purple formazan crystals are formed. After addition of the solubilization solution (20% SDS in 0.02 M HCl) the plates were incubated overnight at 37° C., 5% CO2. After careful mixing plates were measured in Victor 2 (scanning multiwell spectrophotometer, Wallac) at 550 nm.
A decrease in number of living cells results in a decrease in the total metabolic activity in the sample. The decrease directly correlates to the amount of purple color resulting from the solubilization of the purple formazan crystals.
Materials: • HCT116 1000 cells in 60 ul per well of 384 well plate (Greiner) • Medium: RPMI 1640, 2.5% FCS, glutamine, pen/strep. • Incubate 1 day at 37° C.
Induction: • Dilution of compound in DMSO: 3 ul 10 mM+27 ul DMSO, dilute 1:3 • Add 2 ul of compound dilution row to 95 ul of medium • Add 10 ul of compound dilution to 60 ul medium in test plate results in 0.3% DMSO per well • Incubate 120 h (5 days) at 37° C., 5% CO2
Analysis: • Add 7 ul MTT ([…]), incubate 4 h at 37° C. • Add 30 ul lysis buffer (20% SDS, 0.04N HCl) per well • Incubate overnight at 37° C.
Measurement: • Victor 2 (scanning multiwell spectrophotometer, Wallac), at 550 nm • Determination of IC50 was done using XL-fit.
A general note: Tetrazolium assays rely on reduction of a dye to a coloured formazan, in cell work by metabolically active cells.

Regarding `FC(F)(F)Oc1ccc(C=Cc2nc(CNc3ccc(CCCCn4ccnn4)cc3)co2)cc1` [Example 1, [4-(4-[1,2,3]Triazol-1-yl-butyl)-phenyl]-{2-[2-(4-trifluoromethoxy-phenyl)-vinyl]-oxazol-4-ylmethyl}-amine], the melting point lay within 103 to 105 °C. The same molecule displayed an IC50 with HCT116 cells of under 20 nM.

In the case of `FC(F)(F)c1ccc(C=Cc2nc(CNc3ccc(CCCCn4ccnn4)cc3)co2)cc1` [Example 2, [4-(4-[1,2,3]Triazol-1-yl-butyl)-phenyl]-{2-[2-(4-trifluoromethyl-phenyl)-vinyl]-oxazol-4-ylmethyl}-amine], the melting point is 113 to 115 °C. For the same molecule, the IC50 in the series with HCT116 cells is under 20 nM.

`CN(Cc1coc(C=Cc2ccc(C(F)(F)F)cc2)n1)c1ccc(CCCCn2ccnn2)cc1` [Example 3, Methyl-[4-(4-[1,2,3]triazol-1-yl-butyl)-phenyl]-{2-[2-(4-trifluoromethyl-phenyl)-vinyl]-oxazol-4-ylmethyl}-amine] showed a melting point of 112 to 114 °C. In addition, the half-inhibitory concentration (IC50) in the series with HCT116 cells was under 20 nM.

Take `FC(F)Oc1ccc(C=Cc2nc(CNc3ccc(CCCCn4ccnn4)cc3)co2)cc1` [Example 4, {2-[2-(4-Difluoromethoxy-phenyl)-vinyl]-oxazol-4-ylmethyl}-[4-(4-[1,2,3]triazol-1-yl-butyl)-phenyl]-amine]: the melting point is 101 to 102 °C. Also, in the series on HCT116 cells, the IC50 was over 40 nM.

The molecule `Clc1ccc(C=Cc2nc(CNc3ccc(CCCCn4ccnn4)cc3)co2)cc1` [Example 5, {2-[2-(4-Chloro-phenyl)-vinyl]-oxazol-4-ylmethyl}-[4-(4-[1,2,3]triazol-1-yl-butyl)-phenyl]-amine] showed a melting point of 120 to 122 °C. Further, the 50% inhibitory concentration (IC50) with HCT116 cells was under 20 nM.

Regarding `C(=Cc1nc(CNc2ccc(CCCCn3ccnn3)cc2)co1)c1ccc2c(c1)OCO2` [Example 6, [2-(2-Benzo[1,3]dioxol-5-yl-vinyl)-oxazol-4-ylmethyl]-[4-(4-[1,2,3]triazol-1-yl-butyl)-phenyl]-amine], the melting point was 130 to 131 °C. Also, in the series with HCT116 cells, the IC50 was over 40 nM.

`FC1(F)Oc2ccc(C=Cc3nc(CNc4ccc(CCCCn5ccnn5)cc4)co3)cc2O1` [Example 7, {2-[2-(2,2-Difluoro-benzo[1,3]dioxol-5-yl)-vinyl]-oxazol-4-ylmethyl}-[4-(4-[1,2,3]triazol-1-yl-butyl)-phenyl]-amine] showed a melting point of 102 to 104 °C. The half-inhibitory concentration (IC50) in the series with HCT116 cells was over 40 nM.

`FC(F)(F)Sc1ccc(C=Cc2nc(CNc3ccc(CCCCn4ccnn4)cc3)co2)cc1` [Example 8, [4-(4-[1,2,3]Triazol-1-yl-butyl)-phenyl]-{2-[2-(4-trifluoromethylsulfanyl-phenyl)-vinyl]-oxazol-4-ylmethyl}-amine] returned a melting point of 76 to 78 °C. The same molecule gave an IC50 in the series on HCT116 cells of under 20 nM.

`CN(Cc1coc(C=Cc2ccc3c(c2)OCO3)n1)c1ccc(CCCCn2ccnn2)cc1` [Example 13, [2-(2-Benzo[1,3]dioxol-5-yl-vinyl)-oxazol-4-ylmethyl]-methyl-[4-(4-[1,2,3]triazol-1-yl-butyl)-phenyl]-amine] came in with an IC50 with HCT116 cells of over 40 nM.

Turning to `CN(Cc1coc(C=Cc2ccc(SC(F)(F)F)cc2)n1)c1ccc(CCCCn2ccnn2)cc1` [Example 14, Methyl-[4-(4-[1,2,3]triazol-1-yl-butyl)-phenyl]-{2-[2-(4-trifluoromethylsulfanyl-phenyl)-vinyl]-oxazol-4-ylmethyl}-amine], in the series with HCT116 cells, the half-inhibitory concentration (IC50) was under 20 nM.

Consider `CN(Cc1coc(C=Cc2ccc(Cl)cc2)n1)c1ccc(CCCCn2ccnn2)cc1` [Example 15, {2-[2-(4-Chloro-phenyl)-vinyl]-oxazol-4-ylmethyl}-methyl-[4-(4-[1,2,3]triazol-1-yl-butyl)-phenyl]-amine], for which the IC50 in the series on HCT116 cells is over 40 nM.

For `FC(F)(F)Oc1ccc(C=Cc2nc(CNc3ccc(OCCCn4ccnn4)cc3)co2)cc1` [Example 16, [4-(3-[1,2,3]Triazol-1-yl-propoxy)-phenyl]-{2-[2-(4-trifluoromethoxy-phenyl)-vinyl]-oxazol-4-ylmethyl}-amine], the IC50 in the series on HCT116 cells is over 40 nM.

In the series with HCT116 cells, `FC(F)(F)Sc1ccc(C=Cc2nc(CNc3ccc(OCCCn4ccnn4)cc3)co2)cc1` [Example 17, [4-(3-[1,2,3]Triazol-1-yl-propoxy)-phenyl]-{2-[2-(4-trifluoromethylsulfanyl-phenyl)-vinyl]-oxazol-4-ylmethyl}-amine] had an IC50 of over 40 nM.

`Clc1ccc(C=Cc2nc(CNc3ccc(OCCCn4ccnn4)cc3)co2)cc1` [Example 18, {2-[2-(4-Chloro-phenyl)-vinyl]-oxazol-4-ylmethyl}-[4-(3-[1,2,3]triazol-1-yl-propoxy)-phenyl]-amine] registered an IC50 in the series with HCT116 cells of over 40 nM.

On to `O=C(Nc1ccc(OCCCn2ccnn2)cc1)c1coc(C=Cc2ccc(C(F)(F)F)cc2)n1` [Example 19, 2-[2-(4-Trifluoromethyl-phenyl)-vinyl]-oxazole-4-carboxylic acid [4-(3-[1,2,3]triazol-1-yl-propoxy)-phenyl]-amide], for which the concentration for half-maximal inhibition (IC50) in the series on HCT116 cells was over 40 nM.

In turn, `O=C(Nc1ccc(OCCCn2ccnn2)cc1)c1coc(C=Cc2ccc(OC(F)(F)F)cc2)n1` [Example 20, 2-[2-(4-Trifluoromethoxy-phenyl)-vinyl]-oxazole-4-carboxylic acid [4-(3-[1,2,3]triazol-1-yl-propoxy)-phenyl]-amide] showed an IC50 in the series with HCT116 cells of over 40 nM.

In turn, `O=C(Nc1ccc(CCCCn2ccnn2)cc1)c1coc(C=Cc2ccc(OC(F)(F)F)cc2)n1` [Example 21, 2-[2-(4-Trifluoromethoxy-phenyl)-vinyl]-oxazole-4-carboxylic acid [4-(4-[1,2,3]triazol-1-yl-butyl)-phenyl]-amide] had an IC50 in the series with HCT116 cells of over 40 nM.

Molecule `CN(C(=O)c1coc(C=Cc2ccc(OC(F)(F)F)cc2)n1)c1ccc(CCCCn2ccnn2)cc1` [Example 22, 2-[2-(4-Trifluoromethoxy-phenyl)-vinyl]-oxazole-4-carboxylic acid methyl-[4-(4-[1,2,3]triazol-1-yl-butyl)-phenyl]-amide] registered an IC50 with HCT116 cells of over 40 nM.

In the case of `CN(C(=O)c1coc(C=Cc2ccc(OC(F)(F)F)cc2)n1)c1ccc(OCCCn2ccnn2)cc1` [Example 23, 2-[2-(4-Trifluoromethoxy-phenyl)-vinyl]-oxazole-4-carboxylic acid methyl-[4-(3-[1,2,3]triazol-1-yl-propoxy)-phenyl]-amide], the IC50 in the series on HCT116 cells was over 40 nM.

As for `FC(F)(F)c1cccc(C=Cc2nc(CNc3ccc(CCCCn4ccnn4)cc3)co2)c1` [Example 26, [4-(4-[1,2,3]Triazol-1-yl-butyl)-phenyl]-{2-[2-(3-trifluoromethyl-phenyl)-vinyl]-oxazol-4-ylmethyl}-amine], the IC50 in the series on HCT116 cells is over 40 nM.

In the series on HCT116 cells, `O=C(Nc1ccc(CCCCn2ccnn2)cc1)c1coc(C=Cc2ccc3c(c2)OC(F)(F)O3)n1` [Example 29, 2-[2-(2,2-Difluoro-benzo [1,3]dioxol-5-yl)-vinyl]-oxazole-4-carboxylic acid [4-(4-[1,2,3]triazol-1-yl-butyl)-phenyl]-amide] gave an IC50 of under 20 nM.

`O=C(Nc1ccc(CCCCn2ccnn2)cc1)c1coc(C=Cc2ccc(OC(F)F)cc2)n1` [Example 31, 2-[2-(4-Difluoromethoxy-phenyl)-vinyl]-oxazole-4-carboxylic acid-[4-(4-[1,2,3]triazol-1-yl-butyl)-phenyl]-amide] showed an IC50 in the series with HCT116 cells of under 20 nM.

The molecule `CN(C(=O)c1coc(C=Cc2ccc(OC(F)F)cc2)n1)c1ccc(CCCCn2ccnn2)cc1` [Example 32, 2-[2-(4-Difluoromethoxy-phenyl)-vinyl]-oxazole-4-carboxylic acid methyl-[4-(4-[1,2,3]-triazol-1-yl-butyl)-phenyl]-amide] yielded an IC50 with HCT116 cells of over 40 nM.

In the series with HCT116 cells, `Fc1ccc(C=Cc2nc(CNc3ccc(CCCCn4ccnn4)cc3)co2)c(F)c1` [Example 34, {2-[2-(2,4-Difluoro-phenyl)-vinyl]-oxazol-4-ylmethyl}-[4-(4-[1,2,3]triazol-1-yl-butyl)-phenyl]-amine] gave an IC50 of under 20 nM.

As to `Fc1cc(Cl)ccc1C=Cc1nc(CNc2ccc(CCCCn3ccnn3)cc2)co1` [Example 35, {2-[2-(4-Chloro-2-fluoro-phenyl)-vinyl]-oxazol-4-ylmethyl}-[4-(4-[1,2,3]triazol-1-yl-butyl)-phenyl]-amine], the IC50 in the series with HCT116 cells was over 40 nM.

For the molecule `FC(F)(F)Oc1ccc(C=Cc2nc(CNc3ccc(COCCn4ccnn4)cc3)co2)cc1` [Example 36, [4-(2-[1,2,3]Triazol-1-yl-ethoxymethyl)-phenyl]-{2-[2-(4-trifluoromethoxy-phenyl)-vinyl]-oxazol-4-ylmethyl}-amine], the IC50 in the series on HCT116 cells is under 20 nM.

With `FC(F)(F)c1ccc(C=Cc2nc(CNc3ccc(COCCn4ccnn4)cc3)co2)cc1` [Example 37, [4-(2-[1,2,3]Triazol-1-yl-ethoxymethyl)-phenyl]-{2-[2-(4-trifluoromethyl-phenyl)-vinyl]-oxazol-4-ylmethyl}-amine], the IC50 with HCT116 cells was 20 to 40 nM.

The IC50 is the concentration that inhibits the measured activity by half. Low readings indicate greater potency, high ones weaker potency. Usually melting point stands for the temperature of the solid-liquid transition.

These data come from US7205326B2, “Aniline derivatives, their manufacture and use as pharmaceutical agents” (Hoffmann-La Roche Inc., priority 2003, dated 2007).
